From publication PMC3830123 (Biomolecules & Therapeutics, 2013)

How the values were obtained:
Type in all cases: biochemical
[1] = biological target: T1, Rat brain mitochondrial MAO (MAO-A) (Rattus norvegicus, UniProt P21396); assay: MAO-A assay in vitro, serotonin as substrate
T1 sequence (P21396 1-526): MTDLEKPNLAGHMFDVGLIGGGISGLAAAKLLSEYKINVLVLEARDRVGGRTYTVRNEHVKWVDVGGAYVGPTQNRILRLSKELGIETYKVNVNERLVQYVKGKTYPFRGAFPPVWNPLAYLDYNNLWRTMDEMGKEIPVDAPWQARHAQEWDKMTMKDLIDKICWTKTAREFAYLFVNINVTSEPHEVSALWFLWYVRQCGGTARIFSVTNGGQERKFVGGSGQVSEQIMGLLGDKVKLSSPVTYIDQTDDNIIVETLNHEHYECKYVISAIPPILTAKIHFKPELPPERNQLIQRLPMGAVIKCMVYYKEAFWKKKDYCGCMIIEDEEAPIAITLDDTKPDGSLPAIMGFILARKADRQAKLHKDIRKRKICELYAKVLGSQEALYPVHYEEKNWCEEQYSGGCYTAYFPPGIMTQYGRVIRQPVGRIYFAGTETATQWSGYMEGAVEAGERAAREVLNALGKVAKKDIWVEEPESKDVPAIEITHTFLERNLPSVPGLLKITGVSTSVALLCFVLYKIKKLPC

[2] = biological target: T2, Rat liver mitochondrial MAO (MAO-B) (Rattus norvegicus, UniProt P19643); assay: MAO-B assay in vitro, benzylamine as substrate; conditions: IC50 values MAO-B, isolated compounds, Table 2
T2 sequence (P19643 1-520): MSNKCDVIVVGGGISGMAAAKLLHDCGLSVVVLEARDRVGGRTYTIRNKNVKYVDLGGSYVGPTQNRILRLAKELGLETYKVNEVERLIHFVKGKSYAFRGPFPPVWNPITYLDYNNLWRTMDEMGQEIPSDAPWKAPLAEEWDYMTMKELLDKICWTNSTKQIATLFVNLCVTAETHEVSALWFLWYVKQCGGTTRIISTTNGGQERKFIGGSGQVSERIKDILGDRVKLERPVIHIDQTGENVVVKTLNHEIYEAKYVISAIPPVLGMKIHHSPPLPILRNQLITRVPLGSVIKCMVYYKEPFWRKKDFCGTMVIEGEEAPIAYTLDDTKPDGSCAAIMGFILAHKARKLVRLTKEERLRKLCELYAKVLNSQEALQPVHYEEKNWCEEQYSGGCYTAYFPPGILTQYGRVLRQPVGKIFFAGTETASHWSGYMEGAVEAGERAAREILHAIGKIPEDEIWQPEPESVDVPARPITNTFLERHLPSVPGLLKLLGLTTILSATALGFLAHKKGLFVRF

[3] = biological target: T3, dopamine β-hydroxylase (DBH) (Homo sapiens, UniProt P09172); assay: DBH assay in vitro, tyramine as substrate
T3 sequence (P09172 1-617): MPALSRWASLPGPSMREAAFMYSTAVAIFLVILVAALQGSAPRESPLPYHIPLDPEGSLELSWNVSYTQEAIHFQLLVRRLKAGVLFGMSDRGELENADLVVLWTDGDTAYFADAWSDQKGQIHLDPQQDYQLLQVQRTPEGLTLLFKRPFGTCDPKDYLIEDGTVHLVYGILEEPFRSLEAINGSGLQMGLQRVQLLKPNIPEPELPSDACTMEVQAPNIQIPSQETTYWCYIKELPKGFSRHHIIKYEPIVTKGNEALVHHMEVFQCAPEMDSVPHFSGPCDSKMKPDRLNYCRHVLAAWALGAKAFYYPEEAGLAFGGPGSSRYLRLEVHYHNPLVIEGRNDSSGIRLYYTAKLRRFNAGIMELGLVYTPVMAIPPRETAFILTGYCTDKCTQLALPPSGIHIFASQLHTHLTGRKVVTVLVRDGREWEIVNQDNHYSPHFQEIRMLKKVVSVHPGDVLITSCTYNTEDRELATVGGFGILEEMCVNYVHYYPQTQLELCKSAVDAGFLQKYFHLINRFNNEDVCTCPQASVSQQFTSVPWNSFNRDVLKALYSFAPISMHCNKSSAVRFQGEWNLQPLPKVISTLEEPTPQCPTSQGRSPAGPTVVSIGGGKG

IC50 [1]: 43.4 µM
IC50 [2]: 43.9 µM
IC50 [3]: 516 µM
SMILES: CC(C)=CCC/C(C)=C/Cc1c(O)ccc(C(=O)/C=C/c2ccc(O)cc2)c1O [Xanthoangelol]
